Source: PubChem BioAssay AID179 (DTP/NCI, 2004)
pEC50, pIC50: −log10 of the molar value. The source made the active and inactive calls.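 Rule for the calls: active = compounds giving half or more protection of infected cells from virus-caused growth loss, again on retest; inactive = the rest.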 Where a SMILES comes first, the peptide text is derived from it. The star is where a group is joined. Cbz = O=C(OCc1ccccc1)*

Tested on: CEM cells HIV-1 protection, formazan growth assay
Assay: NCI AIDS Antiviral Assay
Conditions: for pIC50: measured here: growth of uninfected CEM cells
Procedure, shortened: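 Protection of CEM cells against HIV-1 measured as cell growth via soluble formazan read-out, with five concentrations tested on both infected and uninfected cells; failure to protect may reflect toxicity.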

Compound | pEC50 | pIC50 | outcome
CC1=CC(=O)/C(=C/n2c(=S)sc3ccccc32)C(=O)O1 | < 3.70 | < 3.70 | –
CC(=O)C(C(C)=O)C1c2ccccc2-n2nc(-c3ccccc3)c(O)c21 (stereo not given) | < 4.00 | 6.10 | –
OC(c1nc2ccccc2s1)(C(F)(F)F)C(F)(F)F | – | – | inactive
CC1=NN(C(=O)CC(=O)Nc2ccc(Cl)cc2)C(=O)C1N=Nc1ccc(C(=O)O)cc1 (stereo not given) | < 3.70 | 4.06 | –
Cn1c2c(sc1=O)CCC2 | < 3.70 | < 3.70 | –
O=C(c1ccc(Cl)cc1)N(C(=S)OCc1ccccn1)c1ccccc1 | < 3.70 | 4.08 | –
Nn1c(-c2ccccc2)n[nH]c1=O | < 3.70 | < 3.70 | –
O=[N+]([O-])c1ccc(C2OCC3CSCN32)cc1 (stereo not given) | < 4.40 | < 4.40 | –
O=Nc1c(N=O)c(N=O)c(N=O)c(N=O)c1N=O | < 4.70 | 5.63 | –
CC(=O)NC(CC(C)C(=O)O)(C(=O)O)C(=O)O (stereo not given) | < 3.70 | < 3.70 | –
CCC12C=CCN3CC[C@@]4(c5ccc(OC)cc5N(C)[C@H]4[C@@](O)(C(=O)OC)[C@@H]1OC(C)=O)C32 (stereo not given in full) | – | – | inactive
C[C@H]1C[C@H]2[C@@H]3CCC4=CC(=O)C=C[C@]4(C)[C@@]3(F)[C@@H](O)C[C@]2(C)C1=O | – | – | inactive
CC1CCC2c3c([nH]c4ccccc34)C3C(=O)N(c4ccccc4)C(=O)C3C2C1 (stereo not given) | – | – | inactive
O=C1O/C(=C2\OCc3ccccc32)c2ccccc21 | < 3.82 | < 3.82 | –
CCCCCCCCc1cc2c(O)c(c1)Cc1cc(CCCCCCCC)cc(c1O)Cc1cc(CCCCCCCC)cc(c1O)Cc1cc(CCCCCCCC)cc(c1O)Cc1cc(CCCCCCCC)cc(c1O)Cc1cc(CCCCCCCC)cc(c1O)C2 | – | – | inactive
O=c1cc(C(F)(F)F)c2cc3c(cc2o1)NCCC3 | < 5.01 | < 5.01 | –
COC(=O)c1c2c(cc3c1CC1(Cc4ccccc4C1=O)C3)CCC2 (stereo not given) | < 3.70 | 4.87 | –
Cc1ccc(C(=O)NC(C)C)cc1N=NN(C)C | < 3.84 | < 3.84 | –
CC(C)=C/C=C1/CS(=O)(=O)C=C1C | < 3.70 | 3.87 | –
O=C1OCC2(CO)SC(c3ccccc3)NC12 (stereo not given) | < 3.28 | < 3.28 | –
Cc1cccc2c1CC(Cc1ccccc1C(=O)O)C2=O (stereo not given) | < 3.70 | < 3.70 | –
Cc1cn(C2OC(CO)(C(F)(F)F)C(O)C2O)c(=O)[nH]c1=O (stereo not given) | < 3.70 | < 3.70 | –

Compound | pEC50 | pIC50 | outcome
CC(C)C(Sc1nc(-c2ccccc2)c(-c2ccccc2)[nH]1)C(=O)N/N=C/c1ccc(Cl)cc1 (stereo not given) | < 4.13 | < 4.13 | –
N#Cc1nc(CN2C(=O)c3ccccc3C2=O)oc1N | 5.23 | < 3.70 | –
C=CCCCCCCCCC(=O)NCC1CC1 | < 3.70 | < 3.70 | –
CC1=C(C(=O)NNS(=O)(=O)c2ccc(C)cc2)CC(C(=O)NNS(=O)(=O)c2ccc(C)cc2)=C(C)N1 | < 4.87 | < 4.87 | –
CCOC(=O)CCNC(=O)c1ccccc1SC(=O)CCCC[n+]1ccccc1 | < 5.70 | 5.82 | –
COC(=O)Cc1c(-c2c(CC(=O)OC)c3ccccc3n2C2OC(COC3OC(COC(C)=O)C(OC(C)=O)C(OC(C)=O)C3OC(C)=O)C(O)C(O)C2O)[nH]c2ccccc12 (stereo not given) | 3.98 | 3.82 | –
COc1ccc(C(=CCC(C)C2CCC3[C@@H]4C(OC(C)=O)CC5CC(OC(C)=O)CC[C@]5(C)C4CC(OC(C)=O)[C@]23C)c2ccc(OC)cc2)cc1 (stereo not given in full) | < 3.70 | 4.02 | –
Cc1cccc(Nc2ccccc2C(=O)O)c1C | < 3.70 | 3.89 | –
CN(/N=C\c1ccc2ccccc2c1)C1=NCCN1 | < 3.70 | 4.64 | –
CCCCOCn1c(=O)[nH]c(=O)c2ccccc21 | < 3.70 | 3.79 | –
CCOC(=O)CCSS(=O)(=O)c1ccccc1 | < 3.70 | 4.45 | –
CCOC(=O)c1ccc(N2N=NC3C4CC(C5CCCC54)C32)cc1 (stereo not given) | < 3.70 | < 3.70 | –
CCCNC(=O)Nc1c([N+](=O)[O-])cc(C(F)(F)F)cc1[N+](=O)[O-] | – | – | inactive
CC(C)CC1C(=O)OC(C)(C)OC1=O | < 3.70 | < 3.70 | –
CCOc1ccc(NC(=O)CC2SC(=Nc3ccc(C)cc3C)NC2=O)cc1 (stereo not given) | < 4.18 | < 4.18 | –
O=c1sc2c(s1)SSSSS2 | < 4.30 | 4.80 | –
NC(=O)CCS(=O)(=O)O | < 3.70 | < 3.70 | –
O=C1C2C3C=CC(C3)C2C2C3C=CC(C3)C12 (stereo not given) | < 3.49 | < 3.49 | –
COC1=C(C(=O)OC(C)(C)C)[C@]2(C)C(C(=O)OC(C)(C)C)C(OC)=C(C(=O)OC(C)(C)C)[C@]2(C)C1C(=O)OC(C)(C)C (stereo not given in full) | – | – | inactive
O=c1c2cccnc2ncn1CCCN1CCOCC1 | – | – | inactive
COc1cc2c(cc1OC)C(=O)c1nccc3ccc(OC)c(c13)O2 | < 4.27 | 4.36 | –
N#CSCC1COc2ccccc2O1 (stereo not given) | < 3.70 | 5.91 | –

Compound | pEC50 | pIC50 | outcome
Cc1nn2c(=O)c([N+](=O)[O-])c(/C=C/c3ccccc3)nc2s1 | < 3.70 | 5.48 | –
O=C1NC(=O)/C(=C\c2ccccc2)C2=C1CCCC2 | < 4.13 | 4.81 | –
O=C1c2c(O)cccc2C(C2OC(CO)C(O)C(O)C2O)c2cc(CO)cc(O)c21 (stereo not given) | < 3.22 | 3.41 | –
O=S1(=O)OC2(c3ccccc31)c1cc(Br)c(O)c(O)c1Oc1c2cc(Br)c(O)c1O | < 4.40 | 4.44 | –
O=C(NNC(=S)Nc1ccccc1)c1nsc2ccccc12 | < 3.96 | 4.75 | –
C/C(=N\NC(=S)N1CCN(C2CCCCCC2)CC1)c1ccccn1 | < 3.86 | 6.02 | –
COc1cc(OC)c2nccc(NCCCN(C)C)c2c1[N+](=O)[O-] | < 3.70 | 4.03 | –
C=C[C@H](C)[C@H](O)c1c(O)c2c(c3c(CCC)cc(=O)oc13)OC(C)(C)C=C2 | < 3.70 | 4.31 | –
N#Cc1c(O)c2ccccc2[nH]c1=O | < 3.70 | < 3.70 | –
OCC12COC(c3ccccc3)N1C(c1ccccc1)OC2 (stereo not given) | < 3.70 | 4.95 | –
CC(=O)c1ccc2c(c1)CC1(C2)Cc2cc3c(cc2C1)C(=O)CC3 (stereo not given) | < 3.70 | 6.63 | –
Cc1c2ccccc2nc(CSOCCO)[n+]1[O-] | < 3.70 | < 3.70 | –
CCOc1ccc(/C=C(\Cl)c2ccc(OC)cc2)cc1 | < 3.70 | < 3.70 | –
COC(=O)c1ccc2c(O)c(O)ccc2c1 | < 3.70 | 5.50 | –
COC(=O)c1c(C)cc(OC(=O)c2c(C)cc(O)c(/C=N\O)c2O)c(C)c1O | < 3.82 | 5.01 | –
CC(C)C1=CC23CCC4C(C)(C(=O)O)CCCC4(C)C2CC1C1C(=O)N(c2ccc(Cc4ccc(N5C(=O)C6C7CC8C9(C)CCCC(C)(C(=O)O)C9CCC8(C=C7C(C)C)C6C5=O)cc4)cc2)C(=O)C13 (stereo not given) | < 4.45 | 4.86 | –
S=C(N/N=C/c1ccccc1)Nc1ccc(Oc2ccc(NC(=S)N/N=C/c3ccccc3)cc2)cc1 | 5.05 | 4.93 | –
CC1(C)CC2=C(CC3C4C=C5CC(C)(C)OC(=O)C5(C4)C23)C(=O)O1 (stereo not given) | < 4.06 | < 4.06 | –
COc1ccccc1OCc1nnc(SCC(=O)O)n1-c1ccccc1 | < 3.17 | < 3.17 | –
COC(=O)c1cc(C(=CCCCCCl)c2cc(Cl)c(OC)c(C(=O)OC)c2)cc(Cl)c1OC | 4.53 | < 3.70 | –
CC(=O)Nc1ccc(S(=O)(=O)n2oc(=O)c(-c3ccccc3)c2N)cc1 | < 3.70 | 3.98 | –
C#CC1=CC(=O)C(OC)=CC1=O | < 3.70 | 4.50 | –

Compound | pEC50 | pIC50 | outcome
COc1ccccc1C(=O)c1c(N2CCCCC2)c(=O)c1=O | 3.74 | < 3.70 | –
Nc1c(Cl)c([N+](=O)[O-])cc2c1OCCCCO2 | < 3.70 | 3.91 | –
COc1cc(CNC(=O)CCCCCCCC/C=C/Br)ccc1O | < 3.70 | 4.67 | –
COc1ccc(NC(=O)/C(Cc2cc(=O)oc3cc(O)ccc23)=N\NC(C)(C)C)c(OC)c1 | < 4.52 | < 4.52 | –
CCCC(CC)C(C(=O)OCC)C1=NC(C)(C)CC(C)O1 (stereo not given) | < 3.70 | < 3.70 | –
O=C1CC(C(CC(=O)c2ccccc2)c2ccccc2)C(=O)c2ccccc2N1 (stereo not given) | < 3.70 | 4.90 | –
Cc1nc2c(C#N)c3n(c2c(=O)o1)CCCC3 | < 3.70 | < 3.70 | –
CCOC(=O)CNC(=O)C(NC(=O)C1CCCN1C(=O)OCc1ccccc1)C(C)CC (stereo not drawn) (Cbz-Pro-Ile-Gly-OEt; configuration not given here) | < 3.25 | 4.46 | –
N#Cc1ccc(Sc2ccccc2)cc1C#N | < 3.96 | < 3.96 | –
COCN1C(=O)[C@@H]2CCCN2C(=O)c2cc(N)ccc21 | < 3.70 | < 3.70 | –
CC(C)(C)[Si](C)(C)OCC1OC(n2ccc(=O)[nH]c2=O)C(O[Si](C)(C)C(C)(C)C)C1CCN(O)CC1OC(n2ccc(=O)[nH]c2=O)C(O[Si](C)(C)C(C)(C)C)C1O[Si](C)(C)C(C)(C)C (stereo not given) | < 4.00 | < 4.00 | –
CN1C(=O)[C@@H]2N(N(C)C1=O)[C@@]1(Br)C(=O)NC(=O)[C@@]21Br | 3.99 | 3.83 | –
C(#C[PH+](c1ccccc1)c1ccccc1)c1ccccc1.C(#C[PH+](c1ccccc1)c1ccccc1)c1ccccc1.C(#C[PH+](c1ccccc1)c1ccccc1)c1ccccc1.[C-]#[O+].[C-]#[O+].[C-]#[O+].[Cr] | < 6.26 | < 6.26 | –
O=C(CSc1nnc(-c2ccc(N=Cc3ccc(Cl)cc3)cc2)o1)Nc1ccc(Cl)cc1Cl | < 4.46 | 4.60 | –
O=C(Nc1ccn(CCOC(=O)c2ccccc2)c(=O)n1)c1ccccc1 | < 3.73 | < 3.73 | –
Cc1ccc(O)c(C(c2cc(C)ccc2O)c2cc([N+](=O)[O-])ccc2O)c1 | – | – | inactive
CC1C(=O)C2CC3(C)CO[C@@]2(C3O)[C@@]2(C)CC[C@@H]12 (stereo not given in full) | – | – | inactive
Cc1cn(C2CC(NC(=O)NO)C(CO)O2)c(=O)[nH]c1=O (stereo not given) | < 3.70 | < 3.70 | –
O=C(Nc1nc(C23CC4CC(CC(C4)C2)C3)cs1)c1cc2cc(Br)cc(Br)c2oc1=O | < 3.70 | 3.87 | –
